Patent publication US20240058334A1, “METHODS FOR TREATING SMALL CELL LUNG CANCER AND OTHER NEUROENDOCRINE CANCERS” (AstraZeneca AB, priority 2021, published 2024)

Test system: SCLC cell lines
Assay: 96 hr proliferation assay in SCLC cell lines
Type: cell-based
Conditions: for response to single agent ATR inhibitor: the three cell lines with greater than additive response to the combination, SLFN11 low group

Compound	response to single agent ATR inhibitor	lurbinectedin IC50 values (cells with low expression of SLFN11 (FIG. 1))
CNCc1ccc(-c2cc(-c3nc(-c4ccc(S(=O)(=O)C(C)C)cc4)cnc3N)on2)cc1 [berzosertib]	relatively resistant	
C[C@@H]1COCCN1c1cc(C2([S@](C)(=N)=O)CC2)nc(-c2cc[nH]c3nccc2-3)n1 [ceralasertib]	relatively resistant	
COc1ccc2[nH]c3c(c2c1)CCN[C@]31CS[C@@H]2c3c(OC(C)=O)c(C)c4c(c3[C@H](COC1=O)N1[C@@H]2[C@H]2c3c(cc(C)c(OC)c3O)C[C@@H]([C@@H]1O)N2C)OCO4 [lurbinectedin]		higher
